Patent US11401271B2, “Fused heterocyclic compound, pyrazole-ring-containing fused heterocyclic compound, agricultural composition containing thereof, and method of using the composition” (SOUTH CHINA AGRICULTURAL UNIVERSITY, priority 2017, dated 2022)
Where two headings read alike, the source gives them in different places.

Legend:
Format in all cases: in vivo
Solenopsis invicta = experiment: whole plant or invertebrate; details: Solenopsis invicta, water test tube poison-feeding
Outline: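 Mortality (%) of Solenopsis invicta, computed against live counts in control tubes, was recorded 24 h and 72 h after treatment at 25 °C. Compound was offered by oral feeding in test tubes at 100 ppm, diluted from a 10 g/L DMSO stock into water with 5% honey and 0.05% Tween-80.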

Spodoptera exigua = experiment: whole plant or invertebrate; details: Spodoptera exigua, 24 h, read-out: Spodoptera exigua Mortality (%) 500 ppm
Outline: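 Leaf immersion feeding: second-instar larvae (about 35 per vessel, triplicate) kept at 28° C on discs treated with 500 ppm test solution in 0.05% Tween-80. Mortality at 24 h, calculated relative to surviving larvae in the solvent control.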

Bombyx mori L. = experiment: Toxicity test on 2nd-instar larvae of Bombyx mori L., leaf immersion feeding method; details: 1000 ppm, 24 hours
Outline: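 Second-instar silkworm larvae (~35 per vessel, 3 replicates) fed mulberry leaves dipped 5 s in 1000 ppm compound (0.05% Tween-80; DMSO stock diluted), held at 25 °C. Deaths counted after 24 hours; mortality % corrected against Tween-80 control survivors.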

Plutella xylostella = experiment: whole plant or invertebrate; details: Plutella xylostella, read-out: Plutella xylostella Mortality (%) 500 ppm
Outline: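 Leaf immersion feeding test: 2nd-instar larvae (about 35 per vessel, 3 replicates) kept at 28° C. on 1.0 cm cabbage discs soaked 5 s in a 500 ppm solution with 0.05% Tween-80. Mortality after 24 h of exposure, calculated relative to live larvae in the Tween-80 control.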

Apis cernan = experiment: Toxicity test on adult worker bees of Apis cernan, small beaker method; details: 500 ppm, 48 hours
Outline: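 Same-size adult Apis cernan workers, collected the test morning, exposed in groups of 15 to cotton soaked with 500 ppm test liquid (small beaker method). Kept sealed in a dark climate box; live and dead bees counted after 48 h.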

Aphis craccivora = experiment: whole plant or invertebrate; details: Aphis craccivora, 24 h, read-out: Aphis craccivora Mortality (%) 500 ppm
Outline: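 Mortality scored 24 h after treatment as the reduction in live aphids versus a 0.05% Tween-80 control; three replicates, 23° C. Treatment was a 5 s immersion of wingless adults on bean sprouts in 500 ppm test solution containing 0.05% Tween-80, followed by air-drying.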

[1] = 24 h, read-out: Solenopsis invicta Mortality (%) 100 ppm 24 h, 100 ppm, 24 h
[2] = 72 h, read-out: Solenopsis invicta Mortality (%) 100 ppm 72 h, 100 ppm, 72 h

Structure (SMILES)	mortality at 100 ppm (Solenopsis invicta; [1]) [%]	mortality at 100 ppm (Solenopsis invicta; [2]) [%]	mortality at 500 ppm (Spodoptera exigua) [%]	Toxicity determination Bombyx mori L. Mortality (%) (Bombyx mori L.)	mortality at 500 ppm (Plutella xylostella) [%]	Toxicity determination Apis cernan Mortality (%) (Apis cernan)	mortality at 500 ppm (Aphis craccivora) [%]
N#CCC1(CO)Nc2c([S+]([O-])C(F)(F)F)c(C#N)nn2-c2c(Cl)cc(C(F)(F)F)cc21 (centres unmarked) [Compound C24]	36	100	100	11	100	10	100
CNC(=O)C1(CC(=O)OC)Nc2c([S+](C)[O-])c(C(C)=O)nn2-c2c(Cl)cc(C(F)(F)F)cc21 (centres unmarked) [Compound C46]	21	80	91	5	89	3	90
C[S+]([O-])c1c(C#N)nn2c1NC(CO)(CC#N)c1cc(C(F)(F)F)cc(Cl)c1-2 (centres unmarked) [Compound C26]	20	80	90	4	89	4	100
C=CC1Nc2cc(C#N)nn2-c2c(Cl)cc(C(F)(F)F)cc21 (centres unmarked) [Compound C4]	20	87	76	3	86	0	100
CC(=O)c1nn2c(c1Br)NC(C)(C)c1ccccc1-2 [Compound A5]	34	100	100	2	100	9	100
Nc1ccc2c(c1)-n1nc(C(F)(F)F)c(SC(F)(F)F)c1NC2(C(F)(F)F)C(F)(F)F [Compound A13]	20	100	100	17	100	17	100
C=CC1(CCl)Nc2c([S+](C)[O-])c(C#N)nn2-c2c(Cl)cc(C(F)(F)F)cc21 (centres unmarked) [Compound C18]	20	70	86	6	90	5	98
Nc1ccc2c(c1)-n1nc(C(F)(F)F)c(-c3ccc(F)cc3)c1NC2(C(F)(F)F)C(F)(F)F [Compound A12]	44	100	100	13	100	12	100
COC(=O)/C=C/C1(CC#N)Nc2c([S+]([O-])C(F)(F)F)c(C#N)nn2-c2c(Cl)cc(C(F)(F)F)cc21 (centres unmarked) [Compound C58]	29	98	100	4	100	4	100
CC1(C)Nc2cc(C#N)nn2-c2ccccc21 [Compound A1, 5,5-dimethyl-4,5-dihydropyrazole[1,5-α]quinazoline-2-cyano]	20	87	90	9	95	12	100
CC1(C)Nc2c(C#N)c(SCc3ccccc3)nn2-c2cnc(F)nc21 [Compound A46]	20	87	100	7	86	2	100
